# Test results reported in patent US11433136B2, “Polyacetal polymers, conjugates, particles and uses thereof” (THE GENERAL HOSPITAL CORPORATION, priority 2015, dated 2022).
# Test system: AK4.4 tumors
# Assay: Orthotopic AK4.4 pancreatic (PDAC) tumors in lean and obese mice
# Assay type: in vivo, mice (FVB)
# Method: Diet started at six weeks of age, continued for ten weeks (C57BL/6 and FVB), at which time tumors were implanted, and then continued until the end of experiments. In the spontaneous tumor models, diets were administered until tumor collection. Mice genetically deficient for leptin (ob/ob) on a standard chow for seven weeks gained weight compared to age matched WT mice (n=8-10/group for C57Bl/6, FVB and ob/ob, 4-10/group for KPC, 7-21/group for iKRAS). Left bars represent mice fed a low-fat diet, right bars represent mice fed a high fat diet for all groups except C57/B6 on the far right of the graph, in which the right bar represents the ob/ob mice. […] PAN02 and AK4.4 syngeneic tumors were orthotopically implanted in C57BL/6 and FVB mice respectively at ten weeks of diet (lean diet, left bars; and obese diet or ob/ob mice, right bars); ob/ob mice were implanted with PAN02 tumors at seven weeks of age. Tumors were collected 21 days later. Obese animals presented with higher tumor weights than lean counterparts in all models (n=8-10/group). FIG. 7D is representative images of mesenteric peritoneal dissemination in lean and obese mice implanted with PAN02 tumors. Mesenteries collected at the same time as tumors in FIG. 7C. FIG. 7E is a graph showing the quantification of mesenteric peritoneal metastasis in the PAN02 model. FIG. 7F is a graph showing the quantification of retro-peritoneal metastasis in the AK4.4 model. Data are shown as mean±standard error of the mean (SEM). P values were determined by the Student t-test. *, P<0.05; **, P<0.01; ***, P<0.001.
# Expression of genes associated with AT-1 pathway activation and fibrosis/desmoplasia is increased in PAN02 (FIG. 10A) and AK4.4 (FIG. 10B) tumors from obese mice (right bars) in comparison to lean mice (left bars). […] Data normalized to lean group. 3-4 samples per group pooled in one single PCR array fibrosis gene set plate. […] Of note, similar to αSMA, the changes of AT1, as well as other desmoplasia related markers, were relatively mild in the lean setting. […] Data are shown as mean±SEM with the exception of FIGS. 10A and 10B. P values were determined by the Student t-test unless otherwise stated. *, P<0.05; **, P<0.01, ***p<0.001.
# Quantification of total and lectin-positive vessel area in AK4.4 tumors. Obese mice (right bars) presented with decreased perfusion (n=5-12 tumors/group) compared to lean mice (left bars). […] Obese mice presented with increased expression of the hypoxia marker Hif-1α in tumors. […] Doxorubicin quantified via immunofluorescence (n=4 tumors/group). […] AK4.4 syngeneic tumors were orthotopically implanted at ten weeks of diet; treatments were initiated at day 7 post-implantation and tumors resected at day 19. […] Data in FIGS. 17A, 17C and 17D, are shown as mean±SEM. P values were determined by the Student t-test unless otherwise stated. *, P<0.05.
# FIGS. 18A, 18B, 18C, 18D, 18E, 18F, and 18G show the additional effects of AT-1 inhibition on obesity-aggravated desmoplasia, perfusion and drug delivery. […] Scale bar: 30 μm (left panels), 500 μm (right panel). […] FIG. 18E is a western blot showing a decrease in αSMA expression in PAN02 tumors implanted in obese AT1 KO mice compared with obese WT mice (bands are part of a larger WB. Lean control group is depicted in FIG. 18F). […] Data in FIGS. 18D, 18F and 18G are shown as mean±SEM. In FIGS. 18C and 18F, far left bars represent lean mice, middle left bars represent lean mice treated with losartan, middle right bars represent obese mice, and […] bars represent obese mice treated with losartan.
Structure (SMILES),"response to chemotherapy (tumor growth) (obese vs lean, treatment from day 7, tumors resected day 19)",tumor αSMA protein expression (lean and obese),mRNA expression of markers of tumor fibrosis/desmoplasia (lean mice),"response to chemotherapy with AT1 blockade (losartan with 5-FU, lean and obese)",chemotherapy delivery to tumors (obese but not lean mice),tumor perfusion (obese but not lean mice),cytokine expression in tumors (multiplex protein) (obese mice),mRNA expression of markers of tumor fibrosis/desmoplasia (obese mice),tumor fibrillar collagen (SHG) and collagen-1 expression (obese mice),expression of AT1 signaling and desmoplasia-related markers (western blotting) (obese vs lean)
"O=c1[nH]cc(F)c(=O)[nH]1 [Example 5-FU, 5-fluorouracil]",less effective in preventing tumor growth in obese animals,–,–,–,–,–,–,–,–,–
CCCCc1nc(Cl)c(CO)n1Cc1ccc(-c2ccccc2-c2nn[nH]n2)cc1 [losartan],–,reduced tumor αSMA protein expression more dramatically in the obese setting,did not alter these markers in lean mice,improved response to chemotherapy in both lean and obese settings but with higher magnitude in obese setting,increase chemotherapy delivery,tended to improve perfusion,reduced the expression of multiple cytokines including IL-1,reverted by losartan,reduced tumor fibrillar collagen (top panels) as well as collagen-1 expression,normalized the obesity-augmented expression
